Experimental data as given in publication PMC8171317, “Total synthesis, isolation, surfactant properties, and biological evaluation of ananatosides and related macrodilactone-containing rhamnolipids” (Chemical Science, 2021).
Like-named read-outs stand apart in the source and are kept apart here. Marks after values point to notes of the source that are not given here.

Assays:
[1] = system: human colorectal adenocarcinoma (DLD-1); test: Cytotoxicity, resazurin assay; format: cell-based; settings: 48 h, max tested 200 μM
Procedure: (§1) As the anticancer potential of microbial rhamnolipids has previously been reported,[16] we next sought to evaluate the in vitro cytotoxicity of our synthetic and natural glycolipids 1–6 against cancerous cell lines, i.e., human lung carcinoma (A549) and colorectal adenocarcinoma (DLD-1). The compounds were also tested against human normal skin fibroblasts (WS1) to estimate their selectivity towards cancer cells.
(§2) 4. Experimental Procedures for Biological Evaluation and Surfactant Properties. […]
(§3) Cell Culture. Human lung carcinoma (A549), human colorectal adenocarcinoma (DLD-1), and human normal skin fibroblasts (WS1) cell lines were obtained from the American Type Culture Collection (ATCC). All cell lines were cultured in minimum essential medium containing Earle’s […]
(§4) salts and L-glutamine (Mediatech Cellgro, VA), to which were added 10% foetal bovine serum (Hyclone), vitamins (1×), penicillin (100 IU•mL-1), streptomycin (100 µg•mL−1), essential amino acids (1×), and sodium pyruvate (1×) (Mediatech Cellgro, VA). Cells were kept at 37 °C in a humidified environment containing 5% CO2.
(§5) Cytotoxicity Assay. Exponentially growing A549, DLD-1 or WS1 cells were plated in 96-well microplates (Costar, Corning Inc.) at a density of 5 × 10^3 cells per well in 100 µL of culture medium and were allowed to adhere for 16 h prior treatment. Increasing concentrations of each compound in biotech DMSO (Sigma-Aldrich) were then added (100 µL per well) and the cells were incubated for 48 h. The final concentration of DMSO in the culture medium was maintained at 0.5% (v/v) to avoid solvent toxicity. Cytotoxicity was assessed using resazurin9 on an automated 96-well Fluoroskan Ascent F1TM plate reader (Labsystems) using excitation and emission wavelengths of 530 and 590 nm, respectively. Fluorescence was proportional to the cellular metabolic activity in each well. Survival percentage was defined as the fluorescence in experimental wells as compared to that in control wells after subtraction of blank values. Each experiment was carried out three times in triplicate. IC50 results were expressed as means ± standard deviation. […]

[2] = system: human lung carcinoma (A549); test: Cytotoxicity, resazurin assay; format: cell-based; settings: 48 h, max tested 200 μM
Procedure: as §1, §2, §3, §4, §5

[3] = system: human normal skin fibroblasts (WS1); test: Cytotoxicity, resazurin assay; format: cell-based; settings: 48 h, max tested 200 μM
Procedure: as §1, §2, §3, §4, §5

sheep blood erythrocytes = test: Hemolytic activity; format: cell-based
Procedure: Owing to their surfactant properties, glycolipids can break the membrane of red blood cells causing hemolytic activity.[18] To understand if the cytotoxicity of macrolactones 1, 4, 5β, and 6β was due to their surface tension activity, we evaluated the hemolytic potential of synthetic glycolipids 1–6 against sheep erythrocytes (Table 5). […] The non-cytotoxic rhamnolipid 3 was also found to exert a weak hemolytic activity (HC50 = 65 ± 6 μM). […]
Hemolytic Activity. The hemolytic activity of the synthetic surfactants was evaluated as previously described with small modifications.10 Defibrinated sheep blood (Oxoid) was centri fuged at 1000 × g for 5 min. The pellet containing erythrocytes was washed once and suspended in 1X PBS to obtain a 1% erythrocytes suspension. All samples were suspended in DMSO/PBS (5:1 v/v) and serially diluted in a 96 -well plate to obtain a range of co ncentrations from 1 mM to 7.8 µM.
The erythrocytes suspension (160 µL) was added to 40 µL of samples to obtain final concentrations […]
ranging between 200 µM and 1.56 µM. Triton X-100 was used as a positive hemolysis control.
The plate was then incubated at 37 °C with agitation at 150 rpm for 1 h and centrifuged at 1500 × g for 5 min. The supernatant was transferred in an empty plate and absorbance was measured at 540 nm using a Cytation3 microplate reader (Biotek). HC50 was calculated in comparison with the positive control. The experiment was performed in triplicate and repeated three times. […]

[4] = Surface tension and CMC, Fisher tensiometer, du Noüy ring method; format: physicochemical; design: γ CMC (surface tension at CMC): unit not given here; settings: pH 7.0; synthetic samples
Procedure: Biosurfactants are molecules that can associate with each other leading to the formation of micelles. They can also interact with surfaces between phases of different polarity such as the air/water or oil/water interface.[77] To gain quantitative insights into the surface-active properties of microbial glycolipids, the surface tensions at CMC (γCMC) of ananatoside A (1) and ananatoside B (2) were measured using a Fisher tensiometer by means of the du Noüy ring method. The CMC, referring to the concentration of surfactant at which micelles start to form, was determined from a plot of surface tension again each concentration. […] Consequently, the surface tension measurements were performed quickly to avoid the precipitation of ananatoside A (1) into the aqueous medium.

[5] = Dynamic light scattering (Zetasizer), hydrodynamic diameter of micelles; format: physicochemical; settings: pH 7.0; concentration 80 μM
Description: In parallel to these experiments, we took advantage of dynamic light scattering (DLS) to evaluate the hydrodynamic diameter of biosurfactant micelles formed at concentrations above the CMC (Table 4).[79] DLS considers the intensity of light scattered by spherical particles, which prevents its application for highly polydisperse and non-spherical colloidal systems. […] Once again, due to its hydrophobicity, ananatoside A (1) was too polydisperse for conducting a proper distribution analysis, showing a Z-average value above 800 nm, which meant that the particles were aggregated in water at the tested concentration. Similar results were obtained for ananatoside A (1) when the DLS experiments were conducted in DMSO as the solvent.

[6] = Emulsifying activity against hydrocarbon contaminants; format: physicochemical; settings: cyclohexane and kerosene
Procedure: Therefore, the emulsifying properties of microbial biosurfactants 1–3 were evaluated against light as well as heavy hydrocarbon contaminants such as cyclohexane and kerosene, respectively (see Fig. S7 ^†).

[7] = Cytotoxicity, resazurin assay; format: cell-based, human; settings: human, max tested 200 μM
Procedure: as §1, §2, §3, §4, §5

[8] = Cytotoxicity, resazurin assay, summary over cell lines; format: cell-based; settings: human, DLD-1 and WS1 cells (summary over the three lines); A549, DLD-1 and WS1; read-out: Cytotoxicity IC50 against human cell lines
Procedure: as §1, §2, §3, §4, §5

tomato leaf disks = test: Extracellular ROS production, luminol chemiluminescence; format: cell-based, Solanum lycopersicum; settings: 100 μM, monitored over 720 min
Description: Bacterial rhamnolipids, such as compound 3, trigger the plant immune system, which can ultimately lead to plant protection against diseases caused by fungal and bacterial pathogens.[23] As ananatoside A (1) and ananatoside B (2) share structural similarities with rhamnolipid 3 and because they have been isolated from P. ananatis cultures, an emerging plant pathogen causing important agricultural damage worldwide,[81] we wanted to investigate whether these bacterial glycolipids, along with our unprecedented series of synthetic rhamnolactones, could be perceived by the plant immune system. We relied on measuring the extracellular content of reactive oxygen species (ROS) produced by tomato plants (Solanum lycopersicum) following treatment with the synthetic compounds, as an early and important marker of plant immunity.[20,22,82] Tomato leaves were challenged with synthetic glycolipids 1–6 at concentrations of 100 μM and the production of ROS was monitored over a 720 min time frame (Fig. 5).
Fig. 5 Extracellular reactive oxygen species (ROS) production following treatment of tomato leaf disks with ananatoside A (1), ananatoside B (2), RhaC10C10 (3), and related macrodilactone-containing rhamnolipids (4–6). Production of ROS was measured in tomato leaf disks following treatment at 100 μM with synthetic glycolipids (1–6). MeOH (0.5%) was used as a control. ROS production was measured using the chemiluminescence of luminol and photon counts were expressed as relative luminescence units (RLUs). Data are mean ± SEM (n = 6). Experiments were independently realized three times with similar results. […]
Plant Material and Growth Conditions. Tomato plants (Solanum lycopersicum L var. Ailsa craig, Scotland) were grown on soil in growth chamber with white fluorescent light [200 μmol•(m−2 s−1)], under 16 h/8 h light/dark regime, 60% relative humidity , and a temperature of 24 /20 °C during four weeks prior treatment. Arabidopsis thaliana plants (ecotype Col -0) were grown on soil in growth chambers with white fluorescent light (150 μmol m−2 s−1), under 12 h/12 h light/dark regime, 60% relative humidity, and a temperature of 20/20 °C during six weeks prior treatment.
Reactive Oxygen Species (ROS) Production. ROS assays were performed on four-week old tomato plants or six-week old Arabidopsis plants. Briefly, tomato leaf disks of 6 mm diameter or Arabidopsis petiole sections of 5 mm long were cut and placed in a 96-well plate (Optiplate TM-96 white, PerkinElmer) containing 150 µL of distilled H2O and then incubated at rt for 24 h to reduce the wounding response.11 The elicitation solution containing 0.2 µg•mL−1 luminol (A4685-5 g, Sigma), […] (P6782, Sigma) and the tested glycolipids (1, 2, 3, 4, 5α, 5β, 6α or 6β) at 100 μM was prepared. Methanol (0.5%) was used as negative control. Prior elicitation, the incubating distilled H2O was carefully removed from each well, avoiding any tissue damage or desiccation. Then, the elicitation solution (150 µL) was quickly added to each well containing a leaf disk or a petiole. Luminescence (relative light units, RLU) was measured every 4

[9] = design: method as in PMID 17105155; settings: estimated; cited from earlier work
[10] = sheep blood erythrocytes, 1 h, 37 °C, max tested 200 μM
[11] = DLD-1 colorectal adenocarcinoma cells

Row | Molecule | Hemolysis (HC50 in μM) Erythrocytes (sheep blood erythrocytes; [10]) | IC50 at 48 h ([7]; A549 lung carcinoma cells) | IC50 at 48 h [7, 11] | IC50 at 48 h ([7]; WS1 normal skin fibroblasts) | IC50 at 48 h [8] | Extracellular ROS production (tomato leaf disks) | other results
1 | CCCCCCCC1CC(=O)OC2C(O)C(C)OC(OC(CCCCCCC)CC(=O)O1)C2O (stereo not drawn) [Compound 6α] | >200 ^d μM | – | – | – | – | – | IC50 [1]: > 200 µM; IC50 [2]: > 200 µM; IC50 [3]: > 200 µM
2 | CCCCCCC[C@H](CC(=O)O)OC(=O)C[C@@H](CCCCCCC)O[C@@H]1O[C@@H](C)[C@H](O)[C@@H](O)[C@H]1O [Compound 3, RhaC10C10] | 65 ± 6 µM | > 200 µM | > 200 µM | > 200 µM | > 200 µM | triggered a long-lasting and strong production of ROS | CMC (critical micelle concentration) [4]: 58 ± 1 µM; γ CMC (surface tension at CMC) [4]: 30 ± 1; Z-Average (hydrodynamic diameter of micelles) [5]: 92.1 nm; Emulsifying activity [6]: equally able to generate emulsions with cyclohexane and kerosene; pKa [9]: 5.5
3 | CCCCCCCC1CC(=O)OC2C(OC(CCCCCCC)CC(=O)O1)OC(C)C(O)C2O (stereo not drawn) [Compound 5α] | >200 ^d μM | > 200 µM | > 200 µM | > 200 µM | – | did not show a similar sensing pattern | –
4 | CCCCCCCC1CC(=O)OC2C(O)C(C)OC(OC(CCCCCCC)CC(=O)O1)C2O (stereo not drawn) [Compound 6β] | 12.3 ± 0.5 µM | 112 ± 2 µM | 112 ± 3 µM | 110 ± 1 µM | 50 to 112 µM | – | –
5 | Triton X-100 [reference compound] | – | – | – | – | – | – | Hemolysis (HC50 in μM) Erythrocytes (sheep blood erythrocytes): c Half maximal inhibitory concentration measured on sheep blood erythrocytes. Triton X-100 was used as a positive control showing an HC50 value of 52 ± 2 μM.
6 | CCCCCCCC1CC(=O)OC2C(OC(CCCCCCC)CC(=O)O1)OC(C)C(O)C2O (stereo not drawn) [Compound 5β] | 14 ± 2 µM | – | – | – | 50 to 112 µM | induced a strong and long-lasting production of ROS following the initial burst at 200 min | IC50 [1]: 110 ± 2 µM; IC50 [2]: 103 ± 7 µM; IC50 [3]: 105 ± 5 µM
7 | COc1cc([C@@H]2c3cc4c(cc3[C@@H](O[C@@H]3O[C@@H]5CO[C@@H](C)O[C@H]5[C@H](O)[C@H]3O)[C@H]3COC(=O)[C@H]23)OCO4)cc(OC)c1O [Etoposide, reference compound] | – | 1.2 µM | 27 µM | 34 µM | – | – | –
8 | CCCCCCCC1CC(=O)OC2C(C)OC(OC(CCCCCCC)CC(=O)O1)C(O)C2O (stereo not shown) [Compound 4] | 12.0 ± 0.7 µM | 56 ± 2 µM | 70 ± 10 µM | 57 ± 1 µM | 50 to 112 µM | – | –
